Experimental data: patent US20100047173A1, “Methods for Using Optical Agents” (priority 2006, published 2010)

How the values were obtained:
[1] = Open-surgery fluorescence imaging of the cystic duct after IV fluorescein; format: in vivo; details: anesthetized pig, approximately 80 minutes post-IV administration of 6 mL of 20 mg/mL fluorescein in PBS
Description: FIG. 1 depicts green fluorescence from fluorescein traveling through a cystic duct in an anesthetized pig. The image was taken during open surgery, post-IV administration of 6 mL of a 20 mg/mL concentration of fluorescein in PBS.
The image was taken during open surgery, approximately 80 minutes post-IV administration of 6 mL of a 20 mg/mL concentration of fluorescein in PBS. The pig weighed about 82 pounds.

[2] = In vivo fluorescence time dependence at the ear after ICG bolus (blood clearance by the liver), normal vs partially hepatectomized rats; parameters: species or system rat
Description: ICG in powdered form was obtained from Sigma (St. Louis, Mo.). Solutions were made by diluting the appropriate amount of ICG in 10 mL of distilled water. Concentrations less than 1 mM were made by serial dilution of a 1 mM stock solution. For ICG fluorescence detection, a nominal 780 nm collimated solid state laser source was employed (LaserMax Inc. model No. LAS-300-780-5). The laser source was directed into the end of a 3.2 mm diameter glass fiber optic bundle (Oriel No. 77526). The other end of this laser delivery bundle was placed approximately 1 cm from the rat ear at an approximate 45° angle. A second similar fiber optic bundle for use as the fluorescence detection conduit was placed approximately 1 cm from the ear at an approximate 30° angle. The exit end of the detection fiber bundle was positioned at the focal length of a 20 mm focal length lens. […] A digital voltmeter monitored the output signal. […]
Female Fischer 344 rats weighing 173-195 g were used. […] The dye was subsequently administered via the indwelling catheter, and the clearance of the agent monitored. […]
To verify that the fluorescence decay curves were related to liver function, and to assess this methodology's feasibility to determine impaired liver function, the following experiment was done. […] A measurement of the time dependence of fluorescence at the ear pre- and post-bolus injection of the ICG solution was measured next. […]

[3] = Ex-vivo continuous wave fluorescence imaging of caecum and lower large intestine after IV ICG; format: in vivo; details: rat, post-IV administration of aqueous ICG solution, 780 nm excitation, 830 nm detection
Description: ICG in powdered form was obtained from Sigma (St. Louis, Mo.). Solutions were made by diluting the appropriate amount of ICG in 10 mL of distilled water. Concentrations less than 1 mM were made by serial dilution of a 1 mM stock solution.
The animals were anesthetized with rat cocktail (xylazine; ketamine; acepromazine 1.5: 1.5: 0.5) at 0.8 mL/kg via intraperitoneal injection. A 21 gauge butterfly infusion set equipped with a stopcock and two syringes containing heparinized saline was placed into the lateral tail vein of the rat. Patency of the vein was checked prior to administration of the agent via the butterfly apparatus.
A simple noninvasive in vivo continuous wave fluorescence imaging apparatus was employed as described below. Light from a LaserMax Inc. laser diode of nominal wavelength 780 nm and nominal power of 40 mW was launched into a fiber optic bundle. A defocusing lens in position after the bundle expanded the beam such that most of the rat was illuminated. The laser power at the output of the bundle was approximately one half of the input power. […]
The above imaging system may also used to view and quantify ex-vivo organs and tissues. […] Blue is indicative of high fluorescence, and red is indicative of low fluorescence.

fluorescence decay time, impaired liver function versus normal liver function ([2]; partially hepatectomized rats (33%-38% of liver ligated) vs normal rat, single exponential fit) | loss of initial fluorescence signal at the ear ([2]; rat, after about 15 minutes post-bolus injection of 500 mL of 1.007 mM ICG solution (FIG. 3)) | Structure (SMILES) | appearance of fluorescence in the cystic duct [1] | fluorescence of feces in ex-vivo intestine (hepatobiliary excretion) [3]
– | – | O=C1OC2(c3ccc(O)cc3Oc3cc(O)ccc32)c2ccccc21 [fluorescein] | fluorescence from fluorescein traveling through the cystic duct | –
almost an order of magnitude longer | approximately 90% | CC1(C)C(/C=C/C=C/C=C/C=C2\N(CCCCS(=O)(=O)[O-])c3ccc4ccccc4c3C2(C)C)=[N+](CCCCS(=O)(=O)[O-])c2ccc3ccccc3c21.[Na+] [ICG] | – | feces that fluoresce due to the ICG within
